Target: T1, human PAH with the R408W mutation (Homo sapiens, UniProt P00439, R408W)
T1 construct: expressed in transfected cells
T1 sequence (P00439 1-452 R408W): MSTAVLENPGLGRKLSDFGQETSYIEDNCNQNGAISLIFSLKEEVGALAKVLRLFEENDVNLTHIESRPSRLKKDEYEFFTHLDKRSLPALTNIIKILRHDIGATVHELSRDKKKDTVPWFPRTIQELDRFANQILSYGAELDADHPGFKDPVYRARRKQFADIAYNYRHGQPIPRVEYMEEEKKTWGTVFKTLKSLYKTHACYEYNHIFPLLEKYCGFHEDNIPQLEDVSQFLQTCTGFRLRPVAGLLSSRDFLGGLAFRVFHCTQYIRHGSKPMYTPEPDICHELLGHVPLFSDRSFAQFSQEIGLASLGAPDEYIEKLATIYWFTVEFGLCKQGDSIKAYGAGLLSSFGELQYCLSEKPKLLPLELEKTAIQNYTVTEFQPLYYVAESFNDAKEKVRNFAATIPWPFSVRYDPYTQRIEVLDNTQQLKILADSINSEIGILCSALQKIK
Assay: Cell Based Phenylalanine Flux Assay
Conditions: A375 cells expressing human R408W PAH; 24 hrs with compound; 13C-Tyrosine by LC-MS; average where tested multiple times; read-out: AC50

SMILES | AC50
Cn1cc(-c2cnc(CC(=O)N3CCc4[nH]cnc4C3c3nc4ccccc4s3)s2)cn1 (stereo not drawn) [listing 1 of 2 here] | > 5 µM
O=C(Cc1ncc(-c2ccccc2)s1)N1CCc2[nH]cnc2C1c1nc2ccccc2s1 (stereo not drawn) [listing 1 of 2 here] | > 5 µM
Cc1nnc(CC(=O)N2CCc3[nH]cnc3C2c2nc3ccccc3s2)s1 (stereo not drawn) | > 5 µM
O=C(Cc1nccs1)N1CCc2[nH]cnc2C1c1nc2c(F)cccc2s1 (stereo not drawn) [listing 1 of 2 here] | > 5 µM
O=C(Cc1nncs1)N1CCc2[nH]cnc2C1c1nc2c(F)cccc2s1 (stereo not drawn) | > 5 µM
O=C(Cc1nc(C(F)(F)F)cs1)N1CCc2[nH]cnc2C1c1nc2c(F)cccc2s1 (stereo not drawn) [listing 1 of 2 here] | > 5 µM
O=C(CCc1nccs1)N1CCc2nc[nH]c2C1c1nc2cc(Br)ccc2s1 (stereo not drawn) [listing 1 of 2 here] | > 5 µM
O=C(Cc1nccs1)N1CCc2[nH]cnc2C1c1nc2cccc(F)c2s1 (stereo not drawn) | > 5 µM
c1ccc2oc(N3CCc4[nH]cnc4C3c3nc4ccccc4s3)nc2c1 (stereo not drawn) | > 5 µM
O=C(c1nc2ccccc2s1)N1CCc2[nH]cnc2C1c1nc2cccc(F)c2s1 (stereo not drawn) | > 5 µM
Cc1nnc(N2CCc3[nH]cnc3C2c2nc3ccccc3s2)o1 (stereo not drawn) | > 5 µM
O=C(c1cnn2cc(CCc3ccccc3)ccc12)N1CCc2[nH]cnc2C1c1nc2ccccc2s1 (stereo not drawn) | > 5 µM
O=C(c1cnn2cc(Cc3ccccc3)ccc12)N1CCc2[nH]cnc2C1c1nc2ccccc2s1 (stereo not drawn) | > 5 µM
O=C(c1cnn2cc(Cl)ccc12)N1CCc2nc[nH]c2C1c1nc2cc(F)ccc2s1 (stereo not drawn) | > 5 µM
O=C(c1cc2ccccn2n1)N1CCc2nc[nH]c2C1c1nc2ccccc2s1 (stereo not drawn) | > 5 µM
O=C(c1cnn2cccc(F)c12)N1CCc2[nH]cnc2C1c1nc2c(F)cccc2s1 (stereo not drawn) | > 5 µM
O=C(c1cnn2cccc(F)c12)N1CCc2[nH]cnc2C1c1nc2cc(F)ccc2s1 (stereo not drawn) | > 5 µM
COc1ccn2ncc(C(=O)N3CCc4[nH]cnc4C3c3nc4ccc(F)cc4s3)c2c1 (stereo not drawn) | 1 to 5 µM
Cn1cc(-c2cnc(CC(=O)N3CCc4[nH]cnc4C3c3nc4ccccc4s3)s2)cn1 (stereo not drawn) [listing 2 of 2 here] | 1 to 5 µM
O=C(Cc1ncc(-c2ccccc2)s1)N1CCc2[nH]cnc2C1c1nc2ccccc2s1 (stereo not drawn) [listing 2 of 2 here] | 1 to 5 µM
O=C(Cc1nc(C(F)(F)F)cs1)N1CCc2[nH]cnc2C1c1nc2c(F)cccc2s1 (stereo not drawn) [listing 2 of 2 here] | 1 to 5 µM
O=C(Cc1nccs1)N1CCc2[nH]cnc2C1c1nc2c(F)cccc2s1 (stereo not drawn) [listing 2 of 2 here] | 1 to 5 µM
Cc1nnc(CC(=O)N2CCc3[nH]cnc3C2c2nc3c(F)cccc3s2)s1 (stereo not drawn) | 1 to 5 µM
O=C(CCc1nccs1)N1CCc2nc[nH]c2C1c1nc2cc(Br)ccc2s1 (stereo not drawn) [listing 2 of 2 here] | 1 to 5 µM

Second part, the molecule after the results:

AC50 | SMILES
> 5 µM | O=C(Cc1nccs1)N1CCc2[nH]cnc2C1c1nc2ccc(Br)cc2s1 (stereo not drawn)
> 5 µM | O=C(Cc1nc(C(F)(F)F)cs1)N1CCc2[nH]cnc2C1c1nc2ccc(F)cc2s1 (stereo not drawn)
> 5 µM | O=C(Cc1nccs1)N1CCc2[nH]cnc2C1c1nc2ccc(F)cc2s1 (stereo not drawn)
> 5 µM | Cc1ncc(C(=O)N2CCc3[nH]cnc3C2c2nc3ccccc3s2)o1 (stereo not drawn)
> 5 µM | Cc1ncc(C(=O)N2CCc3[nH]cnc3C2c2nc3ccccc3s2)s1 (stereo not drawn)
> 5 µM | Cc1ncsc1C(=O)N1CCc2[nH]cnc2C1c1nc2ccccc2s1 (stereo not drawn)
> 5 µM | O=C(c1ncc(Cl)s1)N1CCc2[nH]cnc2C1c1nc2ccc(F)cc2s1 (stereo not drawn)
> 5 µM | O=C(c1cnn2cc(Br)ccc12)N1CCc2[nH]cnc2C1c1nc2ccc(F)cc2s1 (stereo not drawn)
> 5 µM | O=C(c1cnn2cc(Cl)ccc12)N1CCc2[nH]cnc2C1c1nc2ccc(F)cc2s1 (stereo not drawn)
> 5 µM | O=C(C1CC1F)N1CCc2[nH]cnc2C1c1nc2ccccc2s1 (stereo not drawn)
> 5 µM | c1ccc2sc(C3c4nc[nH]c4CCN3CC3CC3)nc2c1 (stereo not drawn)
> 5 µM | O=C(C1CC1)N1CCc2[nH]cnc2C1c1nc2ccc(F)cc2s1 (stereo not drawn)
> 5 µM | O=C(C1CC1)N1CCc2[nH]cnc2C1c1nc2cc(F)ccc2s1 (stereo not drawn)
> 5 µM | O=C(c1cnn2ccccc12)N1CCc2[nH]cnc2C1c1nc2ccc(Br)cc2s1 (stereo not drawn)
> 5 µM | O=C(C1CC1)N1CCc2[nH]cnc2C1c1nc2ccc(Br)cc2s1 (stereo not drawn)
> 5 µM | O=C(c1nccs1)N1CCc2[nH]cnc2C1c1nc2ccc(Cl)cc2s1 (stereo not drawn)
> 5 µM | O=C(c1cnn2ccccc12)N1CCc2[nH]cnc2C1c1nc2ccc(Cl)cc2s1 (stereo not drawn)
> 5 µM | O=C(c1n[nH]c2ccccc12)N1CCc2[nH]cnc2C1c1nc2ccc(F)cc2s1 (stereo not drawn)
> 5 µM | O=C(c1cnco1)N1CCc2[nH]cnc2C1c1nc2ccc(F)cc2s1 (stereo not drawn)
> 5 µM | O=C(c1cncs1)N1CCc2[nH]cnc2C1c1nc2ccc(F)cc2s1 (stereo not drawn)
> 5 µM | O=C(c1nncs1)N1CCc2[nH]cnc2C1c1nc2ccc(F)cc2s1 (stereo not drawn)
> 5 µM | O=C(c1cnn2cccc(F)c12)N1CCc2[nH]cnc2C1c1nc2ccc(F)cc2s1 (stereo not drawn)
> 5 µM | Cc1nnc(C(=O)N2CCc3[nH]cnc3C2c2nc3ccc(F)cc3s2)s1 (stereo not drawn)
> 5 µM | Cc1ccc2c(C(=O)N3CCc4[nH]cnc4C3c3nc4ccc(F)cc4s3)cnn2c1 (stereo not drawn)

From patent US20250171438A1 (Agios Pharmaceuticals, Inc., priority 2022, published 2025)
